According to patent US20250177469A1, “SANGUISORBA OFFICINALIS LINNE EXTRACT COMPOSITION INHIBITING 3CL PROTEASE AND RDRP ACTIVITY OF SARS-COV-2” (QGENETICS CO., LTD., priority 2021, published 2025):

System: SARS-CoV-2
Experiment: CPE inhibition of SARS-CoV-2 in VERO-E6 cells
Format: cell-based
Conditions: 200 TCID50, 3 days, average of three repeats, FIG. 4

Row | Structure (SMILES) | average CPE inhibition value
1 | CC(C)C[C@H](NC(=O)OCc1ccccc1)C(=O)N[C@@H](C[C@@H]1CCNC1=O)C(O)S(=O)(=O)[O-].[Na+] (some centres unmarked) [GC376] | 3.125 µg/mL
2 | CCC(CC)COC(=O)[C@H](C)N[P@](=O)(OC[C@H]1O[C@@](C#N)(c2ccc3c(N)ncnn23)[C@H](O)[C@@H]1O)Oc1ccccc1 [remdesivir] | 8.333 µg/mL
